From paper PMC4230996 (Journal of Medicinal Chemistry, 2014)

Experiments:
mGlu4 [1] = details: read-out: hEC50; human mGlu4 PAM potency; cited from earlier work
mGlu4 [2] = target: mGlu4 (Rattus norvegicus, UniProt P31423); assay: PET imaging of [^18F]3 in rats, baseline and blocking studies; format: in vivo, rat (male Sprague–Dawley); details: blocking agent 10 mg/kg injected 5 min before [^18F]3; uptake as area under TAC
mGlu8 = mGlu8 (Homo sapiens, UniProt O00222); assay: selectivity test, split luciferase biosensor cAMP assay in transfected CHO cells; format: cell-based; details: single concentration 10 μM
[3] = stability of 3 in neutral and acidic media by LC–MS; format: physicochemical
mGlu5a = assay: selectivity functional assay, IPs accumulation in CHO cells; format: cell-based; details: single concentration 10 μM
mGlu1a = assay: as above; format: cell-based; details: single concentration 10 μM
human mGlu4 = details: read-out: IC50 (binding affinity to mGlu4); human mGlu4, Merck's patent; cited from earlier work

Sequence of mGlu4 (Rattus norvegicus, UniProt P31423) (P31423 33-912): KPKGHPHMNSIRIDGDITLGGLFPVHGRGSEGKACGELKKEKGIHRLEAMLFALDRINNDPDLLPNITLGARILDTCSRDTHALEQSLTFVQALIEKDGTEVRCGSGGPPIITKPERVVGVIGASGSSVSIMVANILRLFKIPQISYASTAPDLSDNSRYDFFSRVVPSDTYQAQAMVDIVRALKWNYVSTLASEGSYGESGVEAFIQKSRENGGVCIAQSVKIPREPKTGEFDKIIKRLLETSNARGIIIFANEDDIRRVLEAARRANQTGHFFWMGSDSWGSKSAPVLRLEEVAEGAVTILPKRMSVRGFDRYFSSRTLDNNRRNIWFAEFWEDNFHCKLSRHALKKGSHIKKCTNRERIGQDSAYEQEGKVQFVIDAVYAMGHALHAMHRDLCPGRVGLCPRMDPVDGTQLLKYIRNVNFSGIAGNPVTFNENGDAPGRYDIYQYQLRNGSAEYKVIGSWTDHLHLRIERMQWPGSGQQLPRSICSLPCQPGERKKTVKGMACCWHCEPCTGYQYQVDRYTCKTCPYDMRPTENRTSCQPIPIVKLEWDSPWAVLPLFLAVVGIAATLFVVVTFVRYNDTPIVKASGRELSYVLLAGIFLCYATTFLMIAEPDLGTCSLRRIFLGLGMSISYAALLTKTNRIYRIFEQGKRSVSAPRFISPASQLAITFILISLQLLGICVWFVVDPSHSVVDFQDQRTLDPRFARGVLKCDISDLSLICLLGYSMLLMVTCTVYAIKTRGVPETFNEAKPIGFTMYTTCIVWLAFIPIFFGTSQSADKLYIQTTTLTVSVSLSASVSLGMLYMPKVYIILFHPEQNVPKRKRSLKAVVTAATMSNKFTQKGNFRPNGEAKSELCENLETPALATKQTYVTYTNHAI
Sequence of mGlu8 (O00222 34-908): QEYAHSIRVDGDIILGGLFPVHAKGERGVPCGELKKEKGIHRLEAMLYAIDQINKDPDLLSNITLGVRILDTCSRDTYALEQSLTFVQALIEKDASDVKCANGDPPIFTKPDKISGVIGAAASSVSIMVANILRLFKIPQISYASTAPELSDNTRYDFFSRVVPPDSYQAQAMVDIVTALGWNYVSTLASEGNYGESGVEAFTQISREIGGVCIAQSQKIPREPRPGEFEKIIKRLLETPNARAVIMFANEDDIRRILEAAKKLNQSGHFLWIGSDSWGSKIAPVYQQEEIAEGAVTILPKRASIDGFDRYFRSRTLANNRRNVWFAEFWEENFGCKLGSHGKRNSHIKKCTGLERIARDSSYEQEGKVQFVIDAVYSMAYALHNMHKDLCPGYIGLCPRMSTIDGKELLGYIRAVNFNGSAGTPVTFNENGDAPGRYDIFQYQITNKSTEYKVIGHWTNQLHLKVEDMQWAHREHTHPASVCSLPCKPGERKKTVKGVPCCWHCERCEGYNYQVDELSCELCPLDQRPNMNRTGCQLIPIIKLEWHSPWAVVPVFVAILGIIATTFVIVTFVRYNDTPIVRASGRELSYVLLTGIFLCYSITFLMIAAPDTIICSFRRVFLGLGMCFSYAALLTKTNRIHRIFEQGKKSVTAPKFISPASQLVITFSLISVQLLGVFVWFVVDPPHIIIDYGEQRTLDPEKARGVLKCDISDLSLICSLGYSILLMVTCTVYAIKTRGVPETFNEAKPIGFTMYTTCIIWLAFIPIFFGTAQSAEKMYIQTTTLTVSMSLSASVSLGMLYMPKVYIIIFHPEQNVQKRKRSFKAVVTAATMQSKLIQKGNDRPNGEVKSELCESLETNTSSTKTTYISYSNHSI

With `O=C(Nc1cccc(OC(F)F)c1)c1ccccn1` [Compound 2, N-(3-(difluoromethoxy)phenyl)-2-picolinamide] the “reduced uptake of [^18F]3 in rat brain regions (blocking effect)” value (mGlu4 [2]) was 10–20%.
For `O=C(Nc1ccc(N2C(=O)c3cccc(F)c3C2=O)c(Cl)c1)c1ccccn1` [Compound 3, N-(3-Chloro-4-(4-fluoro-1,3-dioxoisoindolin-2-yl)phenyl)-2-picolinamide], the “agonist or antagonist activity at mGlu8” value (mGlu8) was “little activity”, the “stability in neutral media” value ([3]; 0.1 M ammonium formate water–acetonitrile solution) was “two side products were detected” and the “stability in acidic media” value ([3]; acidic media) was “minimal hydrolysis products”. The “agonist or antagonist activity at mGlu5” value (mGlu5a) was “little activity” and the “agonist or antagonist activity at mGlu1” value (mGlu1a) was “little activity”.
In the case of `Cc1cccc2c1C(=O)N(c1ccc(NC(=O)c3ccccn3)cc1Br)C2=O` [Compound 5], the EC50 (mGlu4 [1]) is listed as 0.101 µM and the IC50 (human mGlu4) is listed as 0.012 µM.
